Columns and labels:
[1] = test system: normal NK cells expanded with K562-aAPC; assay: percent inhibition of viability; higher = more inhibition; conditions: 72 h, IL-2 2.5 ng/mL
Method: (§1)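 Drug sensitivity and resistance testing on K562-aAPC-expanded normal NK cells: 5 concentrations (10-fold steps over a 10,000-fold range), 72 h at 37 °C, viability by CellTiter-Glo normalised to DMSO and benzethonium chloride controls; DSS from the fitted curve.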

[2] = test system: DERL-7 (IL-2 2.5 ng/mL); assay: drug sensitivity score (DSS) (DSS units); higher = more sensitive; extreme values may be limits of the assay; conditions: 72 h
[3] = test system: NK-YS (IL-2 2.5 ng/mL); assay: as above; conditions: 72 h
[4] = test system: normal primary NK cells, pool 1 (3 donors), resting (IL-2 0 ng/mL); assay: as above; conditions: 72 h
[5] = test system: normal primary NK cells, pool 1 (3 donors) (IL-2 2.5 ng/mL); assay: as above; conditions: 72 h
[6] = test system: KHYG-1 (IL-2 2.5 ng/mL); assay: as above; conditions: 72 h
[7] = test system: IMC-1 (IL-2 20 ng/mL); assay: as above; conditions: 72 h
[8] = test system: YT (IL-2 2.5 ng/mL); assay: as above; conditions: 72 h
[9] = test system: normal primary NK cells, pool 2 (3 donors) (IL-2 2.5 ng/mL); assay: as above; conditions: 72 h
[10] = test system: NK-92 (IL-2 2.5 ng/mL); assay: as above; conditions: 72 h
[11] = test system: KAI3 (IL-2 2.5 ng/mL); assay: as above; conditions: 72 h
[12] = test system: NKL (IL-2 2.5 ng/mL); assay: as above; conditions: 72 h
[13] = test system: normal primary NK cells, pool 3 (3 donors) (IL-2 2.5 ng/mL); assay: as above; conditions: 72 h
[14] = test system: SNK-6 (IL-2 2.5 ng/mL); assay: as above; conditions: 72 h
[15] = test system: normal NK cells expanded with K562-aAPC; assay: as above; conditions: 72 h; IL-2 2.5 ng/mL
Method: as §1

[16] = test system: DERL-7 (IL-2 2.5 ng/mL); assay: percent inhibition of viability; higher = more inhibition; conditions: 72 h
[17] = test system: NK-YS (IL-2 2.5 ng/mL); assay: as above; conditions: 72 h
[18] = test system: normal primary NK cells, pool 1 (3 donors), resting (IL-2 0 ng/mL); assay: as above; conditions: 72 h
[19] = test system: normal primary NK cells, pool 1 (3 donors) (IL-2 2.5 ng/mL); assay: as above; conditions: 72 h
[20] = test system: KHYG-1 (IL-2 2.5 ng/mL); assay: as above; conditions: 72 h
[21] = test system: IMC-1 (IL-2 20 ng/mL); assay: as above; conditions: 72 h
[22] = test system: YT (IL-2 2.5 ng/mL); assay: as above; conditions: 72 h
[23] = test system: normal primary NK cells, pool 2 (3 donors) (IL-2 2.5 ng/mL); assay: as above; conditions: 72 h
[24] = test system: NK-92 (IL-2 2.5 ng/mL); assay: as above; conditions: 72 h
[25] = test system: KAI3 (IL-2 2.5 ng/mL); assay: as above; conditions: 72 h
[26] = test system: NKL (IL-2 2.5 ng/mL); assay: as above; conditions: 72 h
[27] = test system: normal primary NK cells, pool 3 (3 donors) (IL-2 2.5 ng/mL); assay: as above; conditions: 72 h
[28] = test system: SNK-6 (IL-2 2.5 ng/mL); assay: as above; conditions: 72 h

CC(C)(C)c1nc(-c2cccc(NS(=O)(=O)c3c(F)cccc3F)c2F)c(-c2ccnc(N)n2)s1 [Dabrafenib] (max concentration tested 2500 nM)
percent inhibition of viability [%]
Conditions | 0.25 nM | 2.5 nM | 25 nM | 250 nM | 2500 nM
[1] | -3.8 | -9.82 | -8.95 | -1.61 | 6.4
[16] | 3.06 | 5 | -0.47 | -3.32 | 34.5
[17] | -4.15 | -0.92 | 0.04 | -2.02 | 0.94
[18] | -10.3 | -11.7 | 7.48 | 10 | 45
[19] | -7.46 | -6.18 | -4.85 | -3.22 | 3.89
[20] | -2.85 | -0.1 | 2.78 | 71.5 | 30.8
[21] | -5.61 | -2.47 | -3.07 | -7.52 | 8.46
[22] | -0.07 | -0.32 | 0.19 | 3.06 | 16.2
[23] | -9.64 | -5.28 | -9.79 | -4.67 | -5.57
[24] | -8.16 | -11.7 | -14.1 | -7.91 | -1.09
[25] | -6.1 | 1.01 | 2.43 | -4.3 | 31.2
[26] | -14.1 | -19.1 | -20.9 | -29.2 | -29.9
[27] | -9.2 | -8.52 | -4.83 | -5.01 | -0.02
[28] | -5.34 | 1.84 | -12.1 | 0.17 | 0

Conditions | drug sensitivity score
[2] | 1.38
[3] | 0
[4] | 3.85
[5] | 0
[6] | 13.4
[7] | 0
[8] | 0.64
[9] | 0.89
[10] | 0.89
[11] | 1.13
[12] | 0.89
[13] | 0.89
[14] | 0
[15] | 0

CO[C@H](C(=O)[C@@H](O)[C@@H](C)O)[C@@H]1Cc2cc3cc(O[C@H]4C[C@@H](O[C@@H]5C[C@@H](O)[C@H](O)[C@@H](C)O5)[C@H](O)[C@@H](C)O4)c(C)c(O)c3c(O)c2C(=O)[C@H]1O[C@H]1C[C@@H](O[C@@H]2C[C@@H](O)[C@@H](O[C@@H]3C[C@](C)(O)[C@H](O)[C@@H](C)O3)[C@@H](C)O2)[C@H](O)[C@@H](C)O1 [Plicamycin] (max concentration tested 10000 nM)
percent inhibition of viability [%]
Conditions | 1 nM | 10 nM | 100 nM | 1000 nM | 10000 nM
[1] | -1.48 | 0.95 | 3.45 | 18.5 | 86.7
[16] | 0.06 | -2.61 | 86.8 | 101 | 101
[17] | -4.88 | 6.73 | 97.1 | 106 | 108
[18] | -24.1 | -3.24 | 28.7 | 88.3 | 89.5
[19] | -2.64 | -1.48 | 31 | 97.5 | 98.2
[20] | -6.39 | 2.63 | 87.8 | 106 | 110
[21] | -2.17 | -0.08 | -16.4 | 69.3 | 100
[22] | -0.6 | 0.99 | 99 | 109 | 110
[23] | -13 | -9.37 | 5.25 | 58.7 | 91.9
[24] | -10.9 | -13.5 | 17.8 | 94.4 | 108
[25] | -19.1 | -16.3 | 61.1 | 93.9 | 106
[26] | -8.9 | -9.19 | 97.5 | 108 | 110
[27] | -7.87 | -12.9 | 5.62 | 56.1 | 95.4
[28] | 6.54 | 44 | 92.3 | 98.5 | 97.8

Conditions | drug sensitivity score
[2] | 28.2
[3] | 31.2
[4] | 20.4
[5] | 22.1
[6] | 28.6
[7] | 13.4
[8] | 30.5
[9] | 12.3
[10] | 19.7
[11] | 25.2
[12] | 29.5
[13] | 12.1
[14] | 34.5
[15] | 7.76

C[C@]12C=CC(=O)C=C1CC[C@@H]1[C@@H]2[C@@H](O)C[C@@]2(C)[C@H]1CC[C@]2(O)C(=O)CO [Prednisolone] (max concentration tested 10000 nM)
percent inhibition of viability [%]
Conditions | 1 nM | 10 nM | 100 nM | 1000 nM | 10000 nM
[1] | -2.45 | 5 | 39.2 | 57.3 | 63.9
[16] | -5.13 | 1.92 | 70 | 98 | 99.5
[17] | -2.75 | -1.1 | -1.97 | -1.53 | 5.33
[18] | 4.52 | 3.57 | 56.8 | 80.2 | 89.9
[19] | 1.14 | 10.2 | 27.4 | 63.4 | 78.3
[20] | -5.42 | -2.27 | 10.1 | 29.8 | 34.5
[21] | -3.99 | -3.97 | -9.73 | -19.4 | -17
[22] | -0.96 | 6.16 | 13.1 | 20.2 | 18.8
[23] | -6.45 | -3.01 | 28.6 | 51.2 | 65
[24] | -16 | -15.5 | -34.4 | -24.4 | -24.4
[25] | -9.17 | -13.6 | -7.78 | -7.77 | -8.06
[26] | 3.58 | 12 | 48.8 | 51.4 | 55.3
[27] | -9.31 | -4.01 | 13.1 | 36.8 | 47.6
[28] | 5.43 | 22.4 | 7.45 | 10.2 | 35.9

Conditions | drug sensitivity score
[2] | 26.2
[3] | 0
[4] | 23
[5] | 15.3
[6] | 6.17
[7] | 0
[8] | 3.72
[9] | 13.2
[10] | 0
[11] | 0
[12] | 17.5
[13] | 8.07
[14] | 4.24
[15] | 16.2

Cc1ccc(-n2nc(C(C)(C)C)cc2NC(=O)Nc2ccc(OCCN3CCOCC3)c3ccccc23)cc1 [Doramapimod] (max concentration tested 10000 nM)
percent inhibition of viability [%]
Conditions | 1 nM | 10 nM | 100 nM | 1000 nM | 10000 nM
[1] | -6.83 | -0.74 | -1.74 | 16.5 | 52.8
[16] | -1.24 | 0.45 | -6.35 | 0.4 | 31.3
[17] | -8.49 | 3.68 | 5.33 | 24.4 | 63.3
[18] | 0.09 | -4.02 | -3.55 | 3.17 | 94.7
[19] | 2.74 | -0.9 | -0.42 | -10.6 | 91.3
[20] | -0.62 | 4.98 | 0.58 | 7.1 | 56.5
[21] | -7.13 | -0.74 | 1.31 | 8.39 | 27.3
[22] | 1.11 | 9.26 | 7.83 | 16.7 | 45
[23] | -9.43 | -4.09 | 6.14 | -0.89 | 85.1
[24] | 13 | 11 | 8.99 | 11.7 | 71.5
[25] | -7.62 | 9.59 | 18.9 | 43.5 | 68
[26] | -7.33 | -0.1 | 12 | 80.7 | 98.6
[27] | -11.6 | -1.56 | 4.57 | 2.15 | 85.2
[28] | -8.06 | 6.04 | -5.96 | -39.3 | 6.22

Conditions | drug sensitivity score
[2] | 1.44
[3] | 6.27
[4] | 5.69
[5] | 4.39
[6] | 4.24
[7] | 2.23
[8] | 3.98
[9] | 4.66
[10] | 5.9
[11] | 10.7
[12] | 16.4
[13] | 5.02
[14] | 0
[15] | 5.25

NC(=O)Nc1cc(-c2cccc(F)c2)sc1C(=O)N[C@H]1CCCNC1 [AZD7762] (max concentration tested 1000 nM)
percent inhibition of viability [%]
Conditions | 0.1 nM | 1 nM | 10 nM | 100 nM | 1000 nM
[1] | -1.82 | -2.38 | -5.7 | 40.7 | 73.3
[16] | 0.34 | 1.83 | -2.38 | 40.2 | 96.8
[17] | -4.78 | -5.3 | -1.14 | 32.8 | 98.5
[18] | -1.65 | 27.9 | 17.6 | 7.65 | 15
[19] | -5.93 | 12.7 | 4.94 | 7.28 | 38.7
[20] | -7.54 | -7.13 | 3.29 | 100 | 106
[21] | -6.23 | -1.75 | -2.17 | -7.04 | 99
[22] | -5.67 | -1.28 | 2.8 | 28.1 | 99.1
[23] | -6.25 | 11.4 | -7.48 | -6.09 | 39.8
[24] | -12.3 | 2.34 | -2.59 | 33.4 | 104
[25] | 3.25 | 1.46 | 16.1 | 87.4 | 101
[26] | -9.43 | -12.1 | 12 | 71.8 | 94.4
[27] | -4.39 | 6.88 | -1.78 | -16.7 | 27.9
[28] | 1.39 | -7.11 | 6.7 | 38.1 | 98.3

Conditions | drug sensitivity score
[2] | 10.7
[3] | 10.1
[4] | 2.58
[5] | 3.1
[6] | 18.4
[7] | 4.99
[8] | 9.64
[9] | 1.59
[10] | 10.2
[11] | 18
[12] | 14.9
[13] | 0.69
[14] | 10
[15] | 9.03

From the supplement of paper PMC5908809
